Source: PubChem BioAssay (NCI)
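Interpolation was linear, between the two tested concentrations surrounding the appropriate level; five concentrations were tested over 48 hours in 96-well plates. TGI: concentration producing complete growth inhibition.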

Tests used:
Experiment in all cases: inhibition of tumour cell growth, NCI panel, 48 h
786-0 renal = system: 786-0 renal
A549 NSCLC = system: A549 NSCLC
ACHN renal = system: ACHN renal
CAKI-1 renal = system: CAKI-1 renal
CCRF-CEM leukemia = system: CCRF-CEM leukemia
COLO 205 colon = system: COLO 205 colon
DMS 114 small cell lung = system: DMS 114 small cell lung
DMS 273 small cell lung = system: DMS 273 small cell lung
EKVX NSCLC = system: EKVX NSCLC
HCC-2998 colon = system: HCC-2998 colon
HCT-116 colon = system: HCT-116 colon
HCT-15 colon = system: HCT-15 colon
HL-60(TB) leukemia = system: HL-60(TB) leukemia
HOP-62 NSCLC = system: HOP-62 NSCLC
HOP-92 NSCLC = system: HOP-92 NSCLC
HT29 colon = system: HT29 colon
IGROV1 ovarian = system: IGROV1 ovarian
K-562 leukemia = system: K-562 leukemia
KM12 colon = system: KM12 colon
KM20L2 colon = system: KM20L2 colon
LOX IMVI melanoma = system: LOX IMVI melanoma
LXFL 529 NSCLC = system: LXFL 529 NSCLC
M14 melanoma = system: M14 melanoma
M19-MEL melanoma = system: M19-MEL melanoma
MALME-3M melanoma = system: MALME-3M melanoma
MOLT-4 leukemia = system: MOLT-4 leukemia
NCI-H226 lung = system: NCI-H226 lung
NCI-H23 lung = system: NCI-H23 lung
NCI-H460 lung = system: NCI-H460 lung
NCI-H522 lung = system: NCI-H522 lung
OVCAR-3 ovarian = system: OVCAR-3 ovarian
OVCAR-4 ovarian = system: OVCAR-4 ovarian
OVCAR-5 ovarian = system: OVCAR-5 ovarian
OVCAR-8 ovarian = system: OVCAR-8 ovarian
RPMI-8226 leukemia = system: RPMI-8226 leukemia
RXF 393 renal = system: RXF 393 renal
RXF-631 renal = system: RXF-631 renal
SF-268 CNS = system: SF-268 CNS
SF-295 CNS = system: SF-295 CNS
SF-539 CNS = system: SF-539 CNS
SK-MEL-2 melanoma = system: SK-MEL-2 melanoma
SK-MEL-28 melanoma = system: SK-MEL-28 melanoma
SK-MEL-5 melanoma = system: SK-MEL-5 melanoma
SK-OV-3 ovarian = system: SK-OV-3 ovarian
SN12C renal = system: SN12C renal
SNB-19 CNS = system: SNB-19 CNS
SNB-75 CNS = system: SNB-75 CNS
SNB-78 CNS = system: SNB-78 CNS
SR leukemia = system: SR leukemia
SW-620 colon = system: SW-620 colon
TK-10 renal = system: TK-10 renal
UACC-257 melanoma = system: UACC-257 melanoma
UO-31 renal = system: UO-31 renal
XF 498 CNS = system: XF 498 CNS
A498 renal = system: A498 renal
DLD-1 colon = system: DLD-1 colon
HOP-18 NSCLC = system: HOP-18 NSCLC
U251 CNS = system: U251 CNS
UACC-62 melanoma = system: UACC-62 melanoma

Measured: TGI

CCCn1c(SCC)c2cc3cc4ccccc4cc3cc2c1-c1nc(F)nc(F)n1
not listed: A498 renal | DLD-1 colon | HOP-18 NSCLC | U251 CNS | UACC-62 melanoma
> 100 µM: all other assays above

COC(=O)C12CC3CC(C1)CC(C(=O)OC)(C3)C2
not listed: COLO 205 colon | K-562 leukemia | MALME-3M melanoma | NCI-H226 lung | RXF 393 renal | RXF-631 renal | SK-MEL-2 melanoma
> 100 µM: all other assays above

NC(=S)N/N=C(\C(=O)Nc1cccc([N+](=O)[O-])c1)c1nc2ccc([N+](=O)[O-])cc2[nH]c1=O
53 µM: NCI-H522 lung
not listed: CAKI-1 renal | OVCAR-3 ovarian | SN12C renal | SNB-78 CNS | SR leukemia
> 100 µM: all other assays above

COC(=O)C12C(=O)O[C@H](C)C1(O)C(C)C(=O)N2C (stereo not given in full)
86.2 µM: XF 498 CNS
not listed: A549 NSCLC | ACHN renal | CCRF-CEM leukemia | DMS 273 small cell lung | HL-60(TB) leukemia | HOP-92 NSCLC | KM20L2 colon | LOX IMVI melanoma | LXFL 529 NSCLC | NCI-H226 lung | NCI-H460 lung | NCI-H522 lung | RXF-631 renal | SF-268 CNS | SN12C renal | SNB-75 CNS | SW-620 colon | UACC-257 melanoma | A498 renal
> 100 µM: all other assays above
